Molecular target: PI3K-alpha (Homo sapiens (Human), UniProt P42336)
Experiment: HTRF PI3K biochemical assay, alpha isoform
Settings: ratio PI3K-alpha IC50 value/PI3K-delta IC50 value

PI3K-alpha, sequence (P42336 whole entry, looked up, canonical isoform): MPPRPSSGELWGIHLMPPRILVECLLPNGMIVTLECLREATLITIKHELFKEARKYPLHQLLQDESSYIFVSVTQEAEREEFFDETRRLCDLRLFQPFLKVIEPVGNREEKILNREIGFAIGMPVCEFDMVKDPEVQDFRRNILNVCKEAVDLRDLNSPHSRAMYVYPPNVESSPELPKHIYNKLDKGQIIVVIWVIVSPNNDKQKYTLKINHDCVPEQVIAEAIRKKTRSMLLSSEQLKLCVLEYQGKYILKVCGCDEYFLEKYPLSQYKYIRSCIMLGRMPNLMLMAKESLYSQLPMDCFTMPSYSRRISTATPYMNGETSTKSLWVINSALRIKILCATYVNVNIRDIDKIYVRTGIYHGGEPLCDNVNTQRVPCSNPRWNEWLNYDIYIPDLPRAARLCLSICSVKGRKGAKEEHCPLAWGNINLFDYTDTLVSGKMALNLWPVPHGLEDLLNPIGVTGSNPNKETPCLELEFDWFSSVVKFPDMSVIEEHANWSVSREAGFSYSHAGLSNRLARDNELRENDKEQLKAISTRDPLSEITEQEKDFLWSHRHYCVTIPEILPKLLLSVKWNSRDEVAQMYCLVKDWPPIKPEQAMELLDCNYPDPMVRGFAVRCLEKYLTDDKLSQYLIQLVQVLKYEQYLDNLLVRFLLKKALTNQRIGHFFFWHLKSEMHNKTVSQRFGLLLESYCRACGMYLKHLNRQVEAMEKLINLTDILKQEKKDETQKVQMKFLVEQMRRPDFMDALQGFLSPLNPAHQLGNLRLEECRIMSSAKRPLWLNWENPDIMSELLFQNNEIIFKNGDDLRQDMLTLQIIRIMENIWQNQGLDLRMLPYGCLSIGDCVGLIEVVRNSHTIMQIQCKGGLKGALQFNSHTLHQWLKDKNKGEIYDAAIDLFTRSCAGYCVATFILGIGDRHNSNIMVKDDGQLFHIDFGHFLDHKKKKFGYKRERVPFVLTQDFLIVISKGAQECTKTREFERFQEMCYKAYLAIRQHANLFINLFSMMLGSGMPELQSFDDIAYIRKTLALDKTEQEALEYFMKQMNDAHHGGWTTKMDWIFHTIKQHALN
PI3K-alpha, sequence (P27986 whole entry partner, looked up, canonical isoform): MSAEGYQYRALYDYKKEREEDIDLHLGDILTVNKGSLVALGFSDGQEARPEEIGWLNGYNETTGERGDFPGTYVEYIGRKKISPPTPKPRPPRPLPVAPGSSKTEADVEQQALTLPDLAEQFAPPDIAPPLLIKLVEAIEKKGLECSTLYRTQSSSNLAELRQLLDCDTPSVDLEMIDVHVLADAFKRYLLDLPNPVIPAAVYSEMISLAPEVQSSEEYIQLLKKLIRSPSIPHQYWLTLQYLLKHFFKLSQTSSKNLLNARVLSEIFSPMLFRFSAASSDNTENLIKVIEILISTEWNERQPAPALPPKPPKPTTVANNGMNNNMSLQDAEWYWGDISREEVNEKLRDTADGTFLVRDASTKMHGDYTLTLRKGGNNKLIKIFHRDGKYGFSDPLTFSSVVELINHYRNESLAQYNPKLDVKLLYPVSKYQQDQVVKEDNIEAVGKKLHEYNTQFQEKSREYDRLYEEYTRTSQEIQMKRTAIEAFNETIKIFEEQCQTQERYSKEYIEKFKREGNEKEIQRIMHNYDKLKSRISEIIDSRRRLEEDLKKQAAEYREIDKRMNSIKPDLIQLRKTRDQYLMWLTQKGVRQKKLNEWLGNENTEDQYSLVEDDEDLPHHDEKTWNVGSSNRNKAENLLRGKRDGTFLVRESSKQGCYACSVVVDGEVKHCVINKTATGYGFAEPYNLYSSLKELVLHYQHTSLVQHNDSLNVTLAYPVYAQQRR

SMILES	Relative Selectivity versus PI3Kalpha
CCC(=O)N1CC[C@H](Oc2ncnc3c2nc(-c2ccc(OC)c(C(F)(F)F)c2)n3C)C1 [Compound 3-35, 8-[4-methoxy-3-(trifluoromethyl)phenyl]-9-methyl-6-{[(3S)-1-propanoylpyrrolidin-3-yl]oxy}-9H-purine]	>10
CCC(=O)N1CC[C@H](Oc2ncnc3c2nc(-c2ccc(OC)c(C)c2)n3C)C1 [Compound 3-36, 8-(4-methoxy-3-methylphenyl)-9-methyl-6-{[(3S)-1-propanoylpyrrolidin-3-yl]oxy}-9H-purine]	>10
CCC(=O)N1CC[C@H](Oc2ncnc3c2nc(-c2cnc(OC)c(C#N)c2)n3C)C1 [Compound 3-37, 2-methoxy-5-(9-methyl-6-{[(3S)-1-propanoylpyrrolidin-3-yl]oxy}-9H-purin-8-yl)pyridine-3-carbonitrile]	>10
CCC(=O)N1CC[C@H](Oc2ncnc3c2nc(-c2cnc(OC)c(NS(C)(=O)=O)c2)n3C)C1 [Compound 3-38, N-[2-methoxy-5-(9-methyl-6-{[(3S)-1-propanoylpyrrolidin-3-yl]oxy}-9H-purin-8-yl)pyridin-3-yl]methanesulfonamide]	>10
CCC(=O)N1CC[C@H](Oc2ncnc3c2nc(-c2ccc(S(C)(=O)=O)cc2)n3C)C1 [Compound 3-39, 9-methyl-8-[4-(methyslulfonyl)phenyl]-6-{[(3S)-1-propanoylpyrrolidin-3-yl]oxy}-9H-purine]	>10
CCC(=O)N1CC[C@H](Oc2ncnc3c2nc(-c2cnn4c2CCCC4)n3C)C1 [Compound 3-40, 9-methyl-6-{[(3S)-1-propanoylpyrrolidin-3-yl]oxy}-8-(4,5,6,7-tetrahydropyrazolo[1,5-a]pyridin-3-yl)-9H-purine]	>10
CCn1c(-c2cnc(OC)c(NS(C)(=O)=O)c2)nc2c(O[C@H]3CCN(C(=O)C4CC4)C3)ncnc21 [Compound 3-41, N-[5-(6-{[(3S)-1-(cyclopropylcarbonyl)pyrrolidin-3-yl]oxy}-9-ethyl-9H-purin-8-yl)-2-methoxypyridin-3-yl]methanesulfonamide]	>10
CCn1c(-c2cnc(OC)c(C#N)c2)nc2c(O[C@H]3CCN(C(=O)C4CC4)C3)ncnc21 [Compound 3-42, 5-(6-{[(3S)-1-(cyclopropylcarbonyl)pyrrolidin-3-yl]oxy}-9-ethyl-9H-purin-8-yl)-2-methoxypyridine-3-carbonitrile]	>10
CCn1c(-c2cnc(C(F)(F)F)nc2)nc2c(O[C@H]3CCN(C(=O)C4CC4)C3)ncnc21 [Compound 3-43, 6-{[(3S)-1-(cyclopropylcarbonyl)pyrrolidin-3-yl]oxy}-9-ethyl-8-[2-(trifluoromethyl)pyrimidin-5-yl]-9H-purine]	>10
CCn1c(-c2cnc(N)c(C(F)(F)F)c2)nc2c(O[C@H]3CCN(C(=O)C4CC4)C3)ncnc21 [Compound 3-44, 5-(6-{[(3S)-1-(cyclopropylcarbonyl)pyrrolidin-3-yl]oxy}-9-ethyl-9H-purin-8-yl)-3-(trifluoromethyl)pyridin-2-amine]	>10
CCn1c(-c2cnc(N(C)C)nc2)nc2c(O[C@H]3CCN(C(=O)C4CC4)C3)ncnc21 [Compound 3-45, 5-(6-{[(3S)-1-(cyclopropylcarbonyl)pyrrolidin-3-yl]oxy}-9-ethyl-9H-purin-8-yl)-N,N-dimethylpyrimidin-2-amine]	>10
CCC1CN(C(=O)C2CC2)CC1Oc1ncnc2c1nc(-c1cnc(C)nc1)n2CC (stereo not shown) [Compound 3-46, [3R,4S and 3S,4R]-6-{[1-(cyclopropylcarbonyl)-4-ethylpyrrolidin-3-yl]oxy}-9-ethyl-8-(2-methylpyrimidin-5-yl)-9H-purine]	>10
CCn1c(-c2ccc(OC)cn2)nc2c(O[C@H]3CCN(C(=O)C4CC4)C3)ncnc21 [Compound 3-48, 6-{[(3S)-1-(cyclopropylcarbonyl)pyrrolidin-3-yl]oxy}-9-ethyl-8-(5-methoxypyridin-2-yl)-9H-purine]	>10
CCn1c(-c2cnc(OC)c(C)c2)nc2c(O[C@H]3CCN(C(=O)C4CC4)C3)ncnc21 [Compound 3-49, 6-{[(3S)-1-(cyclopropylcarbonyl)pyrrolidin-3-yl]oxy}-9-ethyl-8-(6-methoxy-5-methylpyridin-3-yl)-9H-purine]	>10
CCn1c(-c2ccc(OC)nc2)nc2c(O[C@H]3CCN(C(=O)C(C)C)C3)ncnc21 [Compound 3-50, 9-ethyl-8-(6-methoxypyridin-3-yl)-6-{[(3S)-1-(2-methylpropanoyl)pyrrolidin-3-yl]oxy}-9H-purine]	>10
CCn1c(-c2ccc(OC)nc2)nc2c(O[C@H]3CCN(C(=O)C4CC(F)(F)C4)C3)ncnc21 [Compound 3-51, 6-({(3S)-1-[(3,3-difluorocyclobutyl)carbonyl]pyr-rolidin-3-yl}oxy)-9-ethyl-8-(6-methoxypyridin-3-yl)-9H-purine]	>10

SMILES	Relative Selectivity versus PI3Kalpha
CCn1c(-c2ccc(OC)nc2)nc2c(O[C@H]3CCN(C(=O)C4CCOCC4)C3)ncnc21 [Compound 3-52, 9-ethyl-8-(6-methoxypyridin-3-yl)-6-{[(3S)-1-(tetrahydro-2H-pyran-4-ylcarbonyl)pyrrolidin-3-yl]oxy}-9H-purine]	>10
CCn1c(-c2cnc(OC)c(F)c2)nc2c(O[C@H]3CCN(C(=O)C4CC4)C3)ncnc21 [Compound 3-53, 6-{[(3S)-1-(cyclopropylcarbonyl)pyrrolidin-3-yl]oxy}-9-ethyl-8-(5-fluoro-6-methoxypyridin-3-yl)-9H-purine]	>10
CCn1c(-c2cnc(OC)c(F)c2)nc2c(O[C@H]3CCN(C(=O)C(C)C)C3)ncnc21 [Compound 3-54, 9-ethyl-8-(5-fluoro-6-methoxypyridin-3-yl)-6-{[(3S)-1-(2-methylpropanoyl)pyrrolidin-3-yl]oxy}-9H-purine]	>10
CCn1c(-c2cnc(OC)c(F)c2)nc2c(O[C@H]3CCN(C(=O)C4CC(F)(F)C4)C3)ncnc21 [Compound 3-55, 6-({(3S)-1-[(3,3-difluorocyclobutyl)carbonyl]pyr-rolidin-3-yl}oxy)-9-ethyl-8-(5-fluoro-6-methoxypyridin-3-yl)-9H-purine]	>10
CCn1c(-c2cnc(OC)c(F)c2)nc2c(O[C@H]3CCN(C(=O)C4CCOCC4)C3)ncnc21 [Compound 3-56, 9-ethyl-8-(5-fluoro-6-methoxypyridin-3-yl)-6-{[(3S)-1-(tetrahydro-2H-pyran-4-ylcarbonyl)pyrrolidin-3-yl]oxy}-9H-purine]	>10
CCn1c(-c2cnc(OC)c(F)c2)nc2c(O[C@H]3CCN(C(=O)c4ccn(C)n4)C3)ncnc21 [Compound 3-57, 9-ethyl-8-(5-fluoro-6-methoxypyridin-3-yl)-6-({(3S)-1-[(1-methyl-1H-pyrazol-3-yl)carbonyl]pyrrolidin-3-yl}oxy)-9H-purine]	>10
CCn1c(-c2cnc(OC)c(F)c2)nc2c(O[C@H]3CCN(C(=O)c4cncn4C)C3)ncnc21 [Compound 3-58, 9-ethyl-8-(5-fluoro-6-methoxypyridin-3-yl)-6-({(3S)-1-[(1-methyl-1H-imidazol-5-yl)carbonyl]pyrrolidin-3-yl}oxy)-9H-purine]	>10
CCn1c(-c2cnn3c2CCCC3)nc2c(O[C@H]3CCN(C(=O)C4CC4)C3)ncnc21 [Compound 3-59, 6-{[(3S)-1-(cyclopropylcarbonyl)pyrrolidin-3-yl]oxy}-9-ethyl-8-(4,5,6,7-tetrahydropyrazolo[1,5-a]pyridin-3-yl)-9H-purine]	>10
CCn1c(-c2cnn3c2CCCC3)nc2c(O[C@H]3CCN(C(=O)C(C)C)C3)ncnc21 [Compound 3-60, 9-ethyl-6-{[(3S)-1-(2-methylpropanoyl)pyrrolidin-3-yl]oxy}-8-(4,5,6,7-tetrahydropyrazolo[1,5-a]pyridin-3-yl)-9H-purine]	>10
CCn1ncc(-c2nc3c(O[C@H]4CCN(C(=O)C5CCOCC5)C4)ncnc3n2CC)c1C [Compound 3-61, (S)-(3-((9-ethyl-8-(1-ethyl-5-methyl-1H-pyrazol-4-yl)-9H-purin-6-yl)oxy)pyrrolidin-1-yl)(tetrahydro-2H-pyran-4-yl)methanone]	>10
CCn1c(-c2cnc(C)nc2)nc2c(OC3CN(C(=O)C4CC4)CC34CC4)ncnc21 (stereo not shown) [Compound 3-63, (R— or S—)-6-{[5-(cyclopropylcarbonyl)-5-azaspiro[2.4]hept-7-yl]oxy}-9-ethyl-8-(2-methylpyrimidin-5-yl)-9H-purine]	>10
CCn1c(-c2cnc(C)nc2)nc2c(OC3CN(C(=O)C4CC4)CC34CC4)ncnc21 (stereo not shown) [Compound 3-64, (R— or S—)-6-{[5-(cyclopropylcarbonyl)-5-azaspiro[2.4]hept-7-yl]oxy}-9-ethyl-8-(2-methylpyrimidin-5-yl)-9H-purine]	>10
CCn1c(-c2cnc(C)nc2)nc2c(O[C@H]3CCN(S(=O)(=O)CC)C3)ncnc21 [Compound 4-8, (S)-9-ethyl-6-((1-(ethylsulfonyl)pyrrolidin-3-yl)oxy)-8-(2-methylpyrimidin-5-yl)-9H-purine]	>10
CCn1ncc(-c2nc3c(O[C@H]4CCN(C(=O)NC(C)C)C4)ncnc3n2C)c1C [Compound 5-3, (3S)-3-{[8-(1-ethyl-5-methyl-1H-pyrazol-4-yl)-9-methyl-9H-purin-6-yl]oxy}-N-(1-methylethyl)pyrrolidine-1-carboxamide]	>10
CCn1ncc(-c2nc3c(O[C@H]4CCN(C(=O)NC(C)(C)CC(C)(C)C)C4)ncnc3n2C)c1C [Compound 5-4, (3S)-3-{[8-(1-ethyl-5-methyl-1H-pyrazol-4-yl)-9-methyl-9H-purin-6-yl]oxy}-N-(1,1,3,3-tetramethylbutyl)pyrrolidine-1-carboxamide]	>10

— patent publication US9730940B2, “Purine inhibitors of human phosphatidylinositol 3-kinase delta” (priority 2012, dated 2017)
